Assay results as given in PubChem BioAssay AID2060894 (Molecular Pharmacology Branch, DTP, NCI, 2025).

Tested on: K12877-001-R-J1-PDC complex spheroid viability
Assay: Anticancer human tumor K12877-001-R-J1-PDC patient-derived lung adenocarcinoma cell line growth inhibition [RAS]
Details: for IC50: curve of first compound; for viability, T/C: stronger effect = lower value
Summary of the method: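 Tumour cells grown as complex spheroids with HUVEC endothelial cells and mesenchymal stem cells, treated with RAS pathway inhibitor combinations. Each agent spans half-log steps from near clinical Cmax, or 10 microM where Cmax is unknown.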
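Also: spheroids exposed to agents for one week before readout.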
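For viability, T/C in this document: tumour cells co-cultured with HUVEC and mesenchymal stem cells in spheroids.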

## CC(C)NCC(C(=O)N1CCN(c2ncnc3c2C(C)CC3O)CC1)c1ccc(Cl)cc1 (configuration not stated) + CCn1c(-c2cc(N3CCN(C)CC3)cnc2C(C)OC)c2c3cc(ccc31)-c1csc(n1)CC(NC(=O)C1CC1C)C(=O)N1CCCC(N1)C(=O)OCC(C)(C)C2
Second compound 0.000949 µM
  IC50: 7690 nM
Second compound 0.003 µM
  IC50: 4360 nM
Second compound 0.00949 µM
  IC50: 1910 nM
Second compound 0.03 µM
  IC50: 1190 nM
Second compound 0.0949 µM
  IC50: 717 nM
Second compound 0.3 µM
  IC50: 360 nM
Second compound 0.000949 µM, first compound 0.0316 µM
  viability, T/C: 91.9%
Second compound 0.000949 µM, first compound 0.1 µM
  viability, T/C: 90.3%
Second compound 0.000949 µM, first compound 0.316 µM
  viability, T/C: 80.9%
Second compound 0.000949 µM, first compound 1 µM
  viability, T/C: 104%
Second compound 0.000949 µM, first compound 3.16 µM
  viability, T/C: 69.3%
Second compound 0.000949 µM, first compound 10 µM
  viability, T/C: 44.3%
Second compound 0.003 µM, first compound 0.0316 µM
  viability, T/C: 73.9%
Second compound 0.003 µM, first compound 0.1 µM
  viability, T/C: 82.8%
Second compound 0.003 µM, first compound 0.316 µM
  viability, T/C: 78.3%
Second compound 0.003 µM, first compound 1 µM
  viability, T/C: 88%
Second compound 0.003 µM, first compound 3.16 µM
  viability, T/C: 58%
Second compound 0.003 µM, first compound 10 µM
  viability, T/C: 29.3%
Second compound 0.00949 µM, first compound 0.0316 µM
  viability, T/C: 60.9%
Second compound 0.00949 µM, first compound 0.1 µM
  viability, T/C: 74.3%
Second compound 0.00949 µM, first compound 0.316 µM
  viability, T/C: 74.4%
Second compound 0.00949 µM, first compound 1 µM
  viability, T/C: 74.9%
Second compound 0.00949 µM, first compound 3.16 µM
  viability, T/C: 33.4%
Second compound 0.00949 µM, first compound 10 µM
  viability, T/C: 19.6%
Second compound 0.03 µM, first compound 0.0316 µM
  viability, T/C: 101%
Second compound 0.03 µM, first compound 0.1 µM
  viability, T/C: 103%
Second compound 0.03 µM, first compound 0.316 µM
  viability, T/C: 94.2%
Second compound 0.03 µM, first compound 1 µM
  viability, T/C: 52.9%
Second compound 0.03 µM, first compound 3.16 µM
  viability, T/C: 28.4%
Second compound 0.03 µM, first compound 10 µM
  viability, T/C: 17.1%
Second compound 0.0949 µM, first compound 0.0316 µM
  viability, T/C: 106%
Second compound 0.0949 µM, first compound 0.1 µM
  viability, T/C: 104%
Second compound 0.0949 µM, first compound 0.316 µM
  viability, T/C: 75.8%
Second compound 0.0949 µM, first compound 1 µM
  viability, T/C: 39.5%
Second compound 0.0949 µM, first compound 3.16 µM
  viability, T/C: 18.8%
Second compound 0.0949 µM, first compound 10 µM
  viability, T/C: 12.7%
Second compound 0.3 µM, first compound 0.0316 µM
  viability, T/C: 101%
Second compound 0.3 µM, first compound 0.1 µM
  viability, T/C: 78.6%
Second compound 0.3 µM, first compound 0.316 µM
  viability, T/C: 55%
Second compound 0.3 µM, first compound 1 µM
  viability, T/C: 27.2%
Second compound 0.3 µM, first compound 3.16 µM
  viability, T/C: 17.1%
Second compound 0.3 µM, first compound 10 µM
  viability, T/C: 10.9%
